These results are taken from patent US5436246A, “Serotonin receptor agents” (priority 1993, dated 1995).

Molecules are shown by their SMILES. Structures can show the parent of a compound that is named as a salt. Where two headings read alike, the source gives them in different places.

As a reminder, the IC50 is the midpoint of a concentration-inhibition curve. By ED50 is commonly meant the midpoint of the dose-response relation.

The conditions of assay [1]: Bielenberg et al., Stroke Supplement IV, 21 (1990); cited from earlier work.
For assay [2] the following is noted: Eide, Neuropharm. 31, 541 (1992); cited from earlier work.
The conditions of assay [3]: Eur. J. Pharmacol. 144, 223 (1987); 158, 53 (1988); cited from earlier work.
The conditions of assay [4]: Eur. J. Pharmacol. 180, 339 (1990); 182, 63 (1990); cited from earlier work.
The target of assay [5] is T1, 5HT1D receptor (Bos taurus, UniProt F1MGM3).
T1 construct: from tissue
The experiment in a line: 5HT1D receptor binding affinity (procedure of Peroutka et al.).
Procedure: The compounds affinity for the 5HT1D site was determined by the binding procedure of Peroutka et al as reported in European Journal of Pharmacology, Vol. 163 at pages 133-166 (1989). […] Where multiple determinations of the binding affinity have been performed, the average is given followed by the number of determinations in parentheses.

Assay [6] in a line: acetic acid writhing test (analgesic effect). Format: in vivo. The settings on record: Mus musculus, sc, 0.5 h; mice, subcutaneous, 30 minutes before acetic acid i.p. (0.25% v/v, 0.4 ml). How it is done:
Eide, Neuropharm. 31, 541 (1992). […] One such model is the acetic acid writhing test. In this test, a group containing from 5-10 mice are administered the test compound subcutaneously. Thirty minutes after administration of the test compound, the mice are administered acetic acid intraperitoneally (0.25 % v/v, 0.4 ml). The mice are then observed for squirming and writhing. Analgesics block this squirming and writhing.
(In general: Writhing tests count abdominal constrictions after an irritant is injected.)

Assay [7] concerns the target T2, 5HT1A receptor (Rattus norvegicus, UniProt P19327).
T2 sequence (P19327 1-422): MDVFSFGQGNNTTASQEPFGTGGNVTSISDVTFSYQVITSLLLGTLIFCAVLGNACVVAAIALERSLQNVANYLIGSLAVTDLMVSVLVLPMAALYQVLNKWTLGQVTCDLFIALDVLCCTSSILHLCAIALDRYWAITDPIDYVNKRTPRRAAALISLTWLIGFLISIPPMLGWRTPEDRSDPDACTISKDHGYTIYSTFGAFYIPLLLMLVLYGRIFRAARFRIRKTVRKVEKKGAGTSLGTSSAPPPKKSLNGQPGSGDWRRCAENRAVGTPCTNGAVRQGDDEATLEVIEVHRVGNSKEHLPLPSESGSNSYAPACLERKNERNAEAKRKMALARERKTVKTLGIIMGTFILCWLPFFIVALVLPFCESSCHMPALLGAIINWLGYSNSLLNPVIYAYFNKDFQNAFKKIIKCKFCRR
The experiment in a line: 5HT1A receptor binding affinity (procedure of Gozlan et al.). How it is done:
In the following examples, the compounds binding affinity for both the 5HT1A receptor and 5HT1D receptors is reported. The compounds affinity for the 5HT1D site was determined by the binding procedure of Peroutka et al as reported in European Journal of Pharmacology, Vol. 163 at pages 133-166 (1989). The compounds affinity for the 5HT1A receptor was determined by the procedure of Gozlan et al., as reported in Nature, Volume 305, at pages 140-142 (1983). Where multiple determinations of the binding affinity have been performed, the average is given followed by the number of determinations in parentheses. Also, the PA2 value for the saphenous vein preparation as described in this application is given, followed by the intrinsic (agonist) activity in parentheses, expressed as a percentage. [drawing 10] […]

The target in assay [8] is 5-HT1D receptors (Canis lupus familiaris, UniProt P79250). Set-up: species or system dog (canine). Here is the method: In the following examples, the compounds binding affinity for both the 5HT1A receptor and 5HT1D receptors is reported. The compounds affinity for the 5HT1D site was determined by the binding procedure of Peroutka et al as reported in European Journal of Pharmacology, Vol. 163 at pages 133-166 (1989). The compounds affinity for the 5HT1A receptor was determined by the procedure of Gozlan et al., as reported in Nature, Volume 305, at pages 140-142 (1983). Where multiple determinations of the binding affinity have been performed, the average is given followed by the number of determinations in parentheses. Also, the PA2 value for the saphenous vein preparation as described in this application is given, followed by the intrinsic (agonist) activity in parentheses, expressed as a percentage. [drawing 10]
We have used canine saphenous vein for studying 5-HT1D receptors which is similar, although not totally identical, to human coronary 5-HT1D receptors (see Humphrey, P. P. A., Feniuk, W., Perren, M. J., Connor, H. E., Oxford, A. W., Coates, I. H. and Butina, D.: GR43175, a selective agonist for the 5-HT1 -like receptor in dog isolated saphenous vein, Br. J. Pharmacol. 94:1123-1132, 1988; Kaumann, A. J.: Human heart 5-HT receptors, Second international symposium on serotonin, from cell biology to pharmacology and therapeutics, Houston, Sep. 15-18, 1992).
Mongrel dogs weighing 12-18 kg were killed by an intravenous injection of an overdose of sodium pentobarbitol. Saphenous veins were isolated, removed, cleaned of surrounding connective tissue, and cut into helical strips in a dish containing Krebs-Henseleit solution with the following composition in mM: NaCl, 110.0; KCl, 4.8; CaCl2, 2.5; KH2 PO4, 1.2; EDTA(NaEDTA), 0.027; and was constantly bubbled with 95% O2 -5% CO2. Unless otherwise specified, the endothelium of the […] was removed by rubbing with a metal rod. The intactness or absence of functional endothelium was checked by the presence or absence of a relaxant effect of acetycholine (10^-5 M) in phenylephrine-contracted tissues (see Furchgott, R. F. and Zawadzki, J. V.: The obligatory role of endothelial cells in the relaxtion of arterial smooth muscle by acetycholine, Nature 288:373-376, 1980). Each muscle strip (3×30 mm) was set up in a tissue bath at 37° C. and loaded with 2 gram tension. Contractility of the tissues was measured isometrically with a Grass FT03 force-displacement transducer and recorded on a Strip chart recorder. The tissues were allowed to stabilize for 2 hours before the experiment was started, during which time they were washed repeatedly. Tissues were contracted with 3.162×10^-6 M phenylephrine and 40 mM KCl, which produced 60-70% of their maximum contractile responses, to condition the tissue. 5-HT dose response experiment was conducted. Test compounds were then incubated with the tissue before a second 5-HT dose response experiment was performed. Data are expressed as the pA2 value, the negative logarithm of the molar concentration of antagonist which produced a 2 fold shift in ED50 values of 5-HT dose response curves (see Van Rossum, J. M.: Cumulative dose-response curve: Technique for the making of dose-response curves in isolated organs and the evaluation of drug parameters, Arch. Int. Pharmacodyn. Ther. 143:299-330, 1963).

The nature of assay [9]: fear-potentiated startle test (anxiolytic activity). Format: in vivo. The settings on record: rats. From the text: Animals were trained and tested for tear-potentiated startle in a modification of the methods reported in Hitchcock and Davis (1991). Briefly, rats first were given a matching session consisting of 30 startle stimuli. […] A training session took place one to two days later in which the rats were given 10 paired trials consisting of a visual conditioned stimulus (a light) immediately followed by an unconditioned stimulus (footshock). The test session took place two days later. The product of Example No. 15 was administered s.c. in the flank and fifteen minutes later, the rats were given startle stimuli in the absence of the conditioned stimulus (baseline startle measurement; Noise-Alone trials) or in the presence of the conditioned stimulus (fear-potentiated startle measurement; Light-Noise trials). Fear-potentiated startle was defined as higher startle in the presence of the conditioned fear stimulus than in its absence.
Statistical analysis was done on the mean startle amplitudes on the Noise-Alone and Light-Noise trials, and the mean Difference scores (Light-Noise minus Noise-Alone means). One-way analysis of variance was run on the Difference scores and on the Noise-Alone scores. Multiple comparison test (Fisher PLSD) were used to compare each dose group to the vehicle control group.

Assay [10] relates to dorsal raphe nucleus neurons. Particulars: Vandermaelen et al.; cited from earlier work.
For assay [11] the following is noted: early clinical trials; cited from earlier work.
The conditions of assay [12]: Peroutka et al.; Saxena et al.; Hamel et al.; cited from earlier work.

Sequence of 5-HT1D receptors (P79250 whole entry): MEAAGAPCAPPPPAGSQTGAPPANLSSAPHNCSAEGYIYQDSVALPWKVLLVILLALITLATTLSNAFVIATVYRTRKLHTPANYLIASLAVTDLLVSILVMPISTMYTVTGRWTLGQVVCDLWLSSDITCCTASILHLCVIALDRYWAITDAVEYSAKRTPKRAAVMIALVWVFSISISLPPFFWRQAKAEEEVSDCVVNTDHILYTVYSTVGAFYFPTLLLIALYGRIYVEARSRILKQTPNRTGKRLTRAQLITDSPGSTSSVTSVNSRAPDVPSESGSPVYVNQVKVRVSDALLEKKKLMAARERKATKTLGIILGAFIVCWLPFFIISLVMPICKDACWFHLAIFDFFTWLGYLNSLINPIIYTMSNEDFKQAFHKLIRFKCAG
T1 sequence (F1MGM3 1-403): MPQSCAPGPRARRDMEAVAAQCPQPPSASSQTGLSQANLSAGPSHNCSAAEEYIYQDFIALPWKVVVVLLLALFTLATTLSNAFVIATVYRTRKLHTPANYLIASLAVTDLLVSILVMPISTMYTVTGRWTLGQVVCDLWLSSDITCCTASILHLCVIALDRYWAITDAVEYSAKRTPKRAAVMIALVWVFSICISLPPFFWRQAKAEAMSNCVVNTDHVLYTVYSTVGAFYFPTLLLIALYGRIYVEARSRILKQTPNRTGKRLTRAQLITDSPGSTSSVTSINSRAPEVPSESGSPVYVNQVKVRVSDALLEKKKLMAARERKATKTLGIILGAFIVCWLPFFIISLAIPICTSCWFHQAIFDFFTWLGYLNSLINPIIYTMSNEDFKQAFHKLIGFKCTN

On to `CCCN(CCC)C1CCc2cccc(O)c2C1` (stereo not shown) [8-OH DPAT, 8-hydroxy-2-(di-N-propylamino) tetralin], for which the “neuronal destruction in rodent models of stroke” value (“neuronal destruction” below) in assay [1] is “inhibited or decreased neuronal destruction”. Besides, the analgesic effect result in [2] was “effective as analgesics”. The “effect in rodent models for depression” value in assay [3] is recorded as “effective in rodent models for depression”. Besides, in assay [4], the “antihypertensive effect in rodent models” value is “effective for the treatment of hypertension in rodent models”.
Take `CCCN(CCC)C1Cc2c[nH]c3ccc(OC)c(c23)C1.Cl` (stereo not shown) [Bay R 1531]: the “neuronal destruction” value in [1] is given as “inhibited or decreased neuronal destruction”.
As to `Cl.OCc1cc2c(N3CCN(CCc4ccccc4)CC3)cccc2s1` [Example 7, 4[4(2-phenylethyl)-1-piperazinyl]-benzo[b]thiophene-2-methanol monohydrochloride], the IC50 amounted to 2.4 nM in [5] and 0.6 nM in assay [7]. In [6], the ED50 came to 0.61 mg/kg.
Regarding `Cl.NC(=O)c1cc2c(N3CCN(CCc4ccccc4)CC3)cccc2s1` [Example 9, 4-[4-(2-phenylethyl)-1-piperazinyl]-benzo[b]thiophene-2-carboxamide monohydrochloride], the IC50 in [5] came to 1.6 nM; in [7] it was 0.5 nM. For the same compound, in assay [6], the ED50 was 0.12 mg/kg. In assay [8], the Kb is 10.2 nM.
As to `OCc1cc2c(N3CCN(CCCc4ccccc4)CC3)cccc2s1` [Example 15, 4-[4-(3,phenylpropyl)-1-piperazinyl]-benzo[b]thiophene-2-methanol monohydrochloride], the “decrease of fear-potentiated startle” value in [9] (doses of 2.5, 20.0, and 40.0 mg/kg s.c., p<.05 vs vehicle, Fisher PLSD) was “decreased fear-potentiated startle with statistically significant effects”. For the same compound, the “anxiolytic activity in the fear-potentiated startle test” value in [9] (s.c., 15 minutes before test) is recorded as “significant anxiolytic activity”. In addition, the “baseline startle reflex (muscle relaxant activity)” value in assay [9] (s.c., Noise-Alone trials) was “did not decrease the baseline startle reflex”. Also, the IC50 in assay [5] (average of multiple determinations where number in parentheses is given, read-out: IC50 (5HT1D Binding Affinity)) is 23 nM; in [7] (average of multiple determinations where number in parentheses is given, read-out: IC50 (5HT1A Binding Affinity)), 1.8 nM. The compound also gave an ED50 in assay [6] of 1.74 mg/kg.
Take `Cl.NC(=O)c1cc2c(N3CCN(CCc4ccc(Cl)cc4)CC3)cccc2s1` [Example 21, 4-[4-[2-(4-chlorophenyl)ethyl]-1-piperazinyl]-benzo[b]thiophene-2-carboxamide monohydrochloride]: the results for the half-inhibitory concentration (IC50) in [5] and in assay [7] were 14 nM and 2 nM, respectively. The same compound returned an ED50 in assay [6] of 0.05 mg/kg.
Regarding `Cc1ccc(CCN2CCN(c3cccc4sc(C(N)=O)cc34)CC2)cc1` [Example 29, 4-[4-[2-(4-methylphenyl)ethyl]-1-perazinyl]-benzo[b]thiophene-2-carboxamide monohydrochloride], the figures for the IC50 in assay [5] and in [7] were 3 nM and 1 nM, respectively. The same compound gave a 50% effective dose (ED50) in [6] of 0.03 mg/kg.
Turning to `COCc1cc2c(N3CCN(CCc4ccc(F)cc4)CC3)cccc2s1` [Example 46, 4-[4-(2-(4-fluorophenyl)-ethyl)-1-piperazinyl]benzo [b]thiophene 2-methoxymethyl hydrochloride, 0.2 hydrate], the IC50 came to 17 nM in assay [5] (read-out: IC50 (5HT1D Binding Affinity), average of multiple determinations where number in parentheses is given) and 4 nM in assay [7] (read-out: IC50 (5HT1A Binding Affinity), average of multiple determinations where number in parentheses is given). In addition, the Emax in assay [8] (dog, read-out: intrinsic (agonist) activity, saphenous vein preparation) amounted to 5%. The “pA2 (blocking of 5-HT1-like-mediated contraction in canine saphenous vein)” value in assay [8] (negative log molar concentration of antagonist producing 2 fold shift in ED50 of 5-HT dose response curves) is recorded as 7.98.
With `O=C1CC2(CCCC2)CC(=O)N1CCCCN1CCN(c2ncccn2)CC1` [buspirone], the raphe cell firing entry in assay [10] is recorded as “inhibit raphe cell firing”.
Consider `O=C(NCCN1CCN(c2cccc3c2OC[C@H](CO)O3)CC1)c1ccc(F)cc1` [flesinoxan], for which, in assay [4], the “antihypertensive effect in rodent models” value is “effective for the treatment of hypertension in rodent models”.
Consider `CC1(C)CC(=O)N(CCCCN2CCN(c3ncccn3)CC2)C(=O)C1` [gepirone], for which the “neuronal destruction” value in assay [1] is reported as “inhibited or decreased neuronal destruction”.
On to `O=C1c2ccccc2S(=O)(=O)N1CCCCN1CCN(c2ncccn2)CC1` [ipsapirone], for which the “neuronal destruction” value in assay [1] is “inhibited or decreased neuronal destruction”.
`CNS(=O)(=O)Cc1ccc2[nH]cc(CCN(C)C)c2c1` [sumatriptan]: in assay [11], the “termination of acute migraine attacks” value is listed as “terminate acute migraine attacks in early clinical trials”. Moreover, in assay [12], the “antimigraine-like effects in animal models” value was “produce antimigraine-like effects in animal models”.
